In patent publication US20200055817A1 (AbbVie Deutschland GmbH & Co. KG, priority 2016, published 2020):

Tests used:
Format in all cases: cell-based
[1] = target: T1, human EDG8 (S1PR5) receptor (Homo sapiens, UniProt Q9H228); test: Aequorin assay, agonist potency, CHO-A21-EDG8#12 cells; settings: agonist mode, aequorin luminescence; read-out: S1P5 EC50 range #
T1 construct: carries the transgenes human EDG8 (S1PR5) receptor (Acession number NP_110387.1); expressed in transfected cells; host or cells: CHO-A21-EDG8#12 (CHO clone co-expressing mitochondrial aequorin and chimaeric Gaqi5)
T1 sequence (Q9H228 whole entry): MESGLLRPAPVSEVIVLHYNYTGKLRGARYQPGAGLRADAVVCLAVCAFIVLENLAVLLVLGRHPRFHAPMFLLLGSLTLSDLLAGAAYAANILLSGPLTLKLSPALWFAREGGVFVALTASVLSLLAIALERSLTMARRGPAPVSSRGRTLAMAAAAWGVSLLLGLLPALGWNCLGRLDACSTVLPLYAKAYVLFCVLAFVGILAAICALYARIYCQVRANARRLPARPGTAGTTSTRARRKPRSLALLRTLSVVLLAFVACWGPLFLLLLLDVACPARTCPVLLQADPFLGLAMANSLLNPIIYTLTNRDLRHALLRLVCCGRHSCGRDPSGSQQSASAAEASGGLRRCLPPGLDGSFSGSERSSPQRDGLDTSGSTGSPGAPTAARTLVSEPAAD
Procedure, shortened: (§1)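 CHO cells coexpressing receptor, mitochondrial aequorin and Gαqi5 (S1P3 pool: GNA16) were loaded overnight at RT with 5 μM coelenterazine h in 0.1% fatty-acid-free BSA buffer. Cells were injected onto compound, luminescence recorded 90 s and integrated, normalised to digitonin or 20 μM ATP; sigmoidal fit.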

[2] = target: T2, human EDG1 (S1PR1) receptor (Homo sapiens, UniProt P21453); test: Aequorin assay, agonist potency, CHO-A21-Edg1#17 cells; settings: agonist mode, aequorin luminescence; read-out: S1P1 EC50
T2 construct: expressed in transfected cells; host or cells: CHO-A21-Edg1#17 (CHO clone co-expressing mitochondrial aequorin and chimaeric Gaqi5)
T2 sequence (P21453 whole entry): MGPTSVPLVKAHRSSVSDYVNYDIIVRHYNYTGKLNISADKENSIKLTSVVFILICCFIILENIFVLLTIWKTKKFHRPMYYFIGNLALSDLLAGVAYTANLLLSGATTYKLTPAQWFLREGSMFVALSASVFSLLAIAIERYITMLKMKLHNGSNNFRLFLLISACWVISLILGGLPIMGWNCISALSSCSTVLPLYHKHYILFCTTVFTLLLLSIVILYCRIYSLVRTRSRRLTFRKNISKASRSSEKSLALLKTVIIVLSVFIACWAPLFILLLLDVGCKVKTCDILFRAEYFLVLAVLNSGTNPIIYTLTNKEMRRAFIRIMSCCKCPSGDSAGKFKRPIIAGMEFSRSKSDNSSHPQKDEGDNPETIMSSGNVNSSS
Procedure, shortened: as §1

[3] = target: T3, S1P4 (Homo sapiens, UniProt O95977); test: Aequorin assay, agonist potency, S1P4; settings: agonist mode, aequorin luminescence
T3 sequence (O95977 1-384): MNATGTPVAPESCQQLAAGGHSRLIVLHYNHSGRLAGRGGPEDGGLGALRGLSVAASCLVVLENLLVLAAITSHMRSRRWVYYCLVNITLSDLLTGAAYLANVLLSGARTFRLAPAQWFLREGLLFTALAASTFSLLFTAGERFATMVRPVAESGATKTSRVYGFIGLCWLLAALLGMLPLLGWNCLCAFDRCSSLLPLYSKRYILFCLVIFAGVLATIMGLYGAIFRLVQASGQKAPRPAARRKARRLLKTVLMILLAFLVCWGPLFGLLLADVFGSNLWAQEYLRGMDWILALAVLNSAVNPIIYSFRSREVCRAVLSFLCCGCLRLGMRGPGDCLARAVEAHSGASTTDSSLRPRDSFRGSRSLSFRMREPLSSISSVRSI
Procedure, shortened: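 Aequorin luminescence read over 90 s after adding coelenterazine h–loaded cells (5 μM, overnight, RT) to test compound in phenol red-free DMEM/F12 buffer containing 0.1% fatty acid-free BSA. Responses integrated, scaled to the 100% signal from 100 μM digitonin or 20 μM ATP, and fitted to a sigmoidal dose-response model.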

Row | EC50 [1] [nM] | EC50 [2] [nM] | EC50 [3] [nM] | SMILES
1 | 100 to 1000 | > 1000 | < 1000 | O=C(O)C1(CN2CC3(Cc4ccc(OCC5CCCCC5)cc4C3)C2)CC1 [Example 126, 1-((5′-(cyclohexylmethoxy)-1′,3′-dihydrospiro[azetidine-3,2′-inden]-1-yl)methyl)cyclopropanecarboxylic acid]
2 | 1000 to 10000 | > 1000 | < 1000 | O=C(O)C1(CN2CC3(Cc4ccc(OC5Cc6ccccc6C5)cc4C3)C2)CC1 [Example 127, 1-((5′-((2,3-dihydro-1H-inden-2-yl)oxy)-1′,3′-dihydrospiro[azetidine-3,2′-inden]-1-yl)methyl)cyclopropanecarboxylic acid]
3 | 1000 to 10000 | > 1000 | > 1000 | O=C(O)C1(CN2CC3(Cc4ccc(OCc5ccc(OCC6CC6)cc5)cc4C3)C2)CC1 [Example 128, 1-((5′-((4-(cyclopropylmethoxy)benzyl)oxy)-1′,3′-dihydrospiro[azetidine-3,2′-inden]-1-yl)methyl)cyclopropanecarboxylic acid]
4 | ≤ 10 | > 1000 | < 1000 | O=C(O)C1(CN2CC3(Cc4ccc(OC5CCc6cccc(Cl)c65)cc4C3)C2)CC1 (stereo not drawn) [Example 129, 1-((5′-((7-chloro-2,3-dihydro-1H-inden-1-yl)oxy)-1′,3′-dihydrospiro[azetidine-3,2′-inden]-1-yl)methyl)cyclopropanecarboxylic acid]
5 | 1000 to 10000 | > 1000 | < 1000 | O=C(O)C1(CN2CC3(Cc4ccc(OC5CCc6ccccc65)cc4C3)C2)CC1 (stereo not drawn) [Example 130, 1-((5′-((2,3-dihydro-1H-inden-1-yl)oxy)-1′,3′-dihydrospiro[azetidine-3,2′-inden]-1-yl)methyl)cyclopropanecarboxylic acid]
6 | ≤ 10 | > 1000 | < 1000 | O=C(O)C1(CN2CC3(Cc4ccc(OCc5c(F)cccc5C5CC5)cc4C3)C2)CC1 [Example 131, 1-((5′-((2-cyclopropyl-6-fluorobenzyl)oxy)-1′,3′-dihydrospiro[azetidine-3,2′-inden]-1-yl)methyl)cyclopropanecarboxylic acid]
7 | 1000 to 10000 | > 1000 | < 1000 | O=C(O)C1(CN2CC3(Cc4ccc(OCCC5CCCCC5)cc4C3)C2)CC1 [Example 132, 1-((5′-(2-cyclohexylethoxy)-1′,3′-dihydrospiro[azetidine-3,2′-inden]-1-yl)methyl)cyclopropanecarboxylic acid]
8 | 1000 to 10000 | > 1000 | < 1000 | Cc1ccccc1CCOc1ccc2c(c1)CC1(C2)CN(CC2(C(=O)O)CC2)C1 [Example 134, 1-((5′-(2-methylphenethoxy)-1′,3′-dihydrospiro[azetidine-3,2′-inden]-1-yl)methyl)cyclopropanecarboxylic acid]
9 | 1000 to 10000 | > 1000 | > 1000 | COc1ccc(CCOc2ccc3c(c2)CC2(C3)CN(CC3(C(=O)O)CC3)C2)cc1 [Example 135, 1-((5′-(4-methoxyphenethoxy)-1′,3′-dihydrospiro[azetidine-3,2′-inden]-1-yl)methyl)cyclopropanecarboxylic acid]
10 | 1000 to 10000 | > 1000 | < 1000 | O=C(O)C1(CN2CC3(Cc4ccc(OCCc5ccccc5F)cc4C3)C2)CC1 [Example 136, 1-((5′-(2-fluorophenethoxy)-1′,3′-dihydrospiro[azetidine-3,2′-inden]-1-yl)methyl)cyclopropanecarboxylic acid]
11 | 1000 to 10000 | > 1000 | < 1000 | O=C(O)C1(CN2CC3(Cc4ccc(OCCc5ccc(F)cc5)cc4C3)C2)CC1 [Example 137, 1-((5′-(4-fluorophenethoxy)-1′,3′-dihydrospiro[azetidine-3,2′-inden]-1-yl)methyl)cyclopropanecarboxylic acid]
12 | 1000 to 10000 | > 1000 | < 1000 | Cc1ccccc1COc1ccc2c(c1)CC1(C2)CN(CC2(C(=O)O)CC2)C1 [Example 138, 1-((5′-((2-methylbenzyl)oxy)-1′,3′-dihydrospiro[azetidine-3,2′-inden]-1-yl)methyl)cyclopropanecarboxylic acid]
13 | 1000 to 10000 | > 1000 | > 1000 | COc1ccc(COc2ccc3c(c2)CC2(C3)CN(CC3(C(=O)O)CC3)C2)cc1 [Example 139, 1-((5′-((4-methoxybenzyl)oxy)-1′,3′-dihydrospiro[azetidine-3,2′-inden]-1-yl)methyl)cyclopropanecarboxylic acid]
14 | 1000 to 10000 | > 1000 | > 1000 | O=C(O)C1(CN2CC3(Cc4ccc(OCc5ccccc5F)cc4C3)C2)CC1 [Example 140, 1-((5′-((2-fluorobenzyl)oxy)-1′,3′-dihydrospiro[azetidine-3,2′-inden]-1-yl)methyl)cyclopropanecarboxylic acid]
15 | 1000 to 10000 | > 1000 | < 1000 | O=C(O)C1(CN2CC3(Cc4ccc(OCc5ccccc5Cl)cc4C3)C2)CC1 [Example 141, 1-((5′-((2-chlorobenzyl)oxy)-1′,3′-dihydrospiro[azetidine-3,2′-inden]-1-yl)methyl)cyclopropanecarboxylic acid]
16 | 1000 to 10000 | > 1000 | > 1000 | N#Cc1ccc(COc2ccc3c(c2)CC2(C3)CN(CC3(C(=O)O)CC3)C2)cc1 [Example 142, 1-((5′-((4-cyanobenzyl)oxy)-1′,3′-dihydrospiro[azetidine-3,2′-inden]-1-yl)methyl)cyclopropanecarboxylic acid]
17 | 1000 to 10000 | > 1000 | < 1000 | O=C(O)C1(CN2CC3(Cc4ccc(OCc5ccc6c(c5)OCO6)cc4C3)C2)CC1 [Example 143, 1-((5′-(benzo[d][1,3]dioxol-5-ylmethoxy)-1′,3′-dihydrospiro[azetidine-3,2′-inden]-1-yl)methyl)cyclopropanecarboxylic acid]
18 | 1000 to 10000 | > 1000 | > 1000 | O=C(O)C1(CN2CC3(Cc4ccc(OCCc5c[nH]c6ccccc56)cc4C3)C2)CC1 [Example 144, 1-((5′-(2-(1H-indol-3-yl)ethoxy)-1′,3′-dihydrospiro[azetidine-3,2′-inden]-1-yl)methyl)cyclopropanecarboxylic acid]
19 | 1000 to 10000 | > 1000 | < 1000 | O=C(O)C1(CN2CC3(Cc4ccc(OCCOc5ccccc5Cl)cc4C3)C2)CC1 [Example 145, 1-((5′-(2-(2-chlorophenoxy)ethoxy)-1′,3′-dihydrospiro[azetidine-3,2′-inden]-1-yl)methyl)cyclopropanecarboxylic acid]
20 | 1000 to 10000 | > 1000 | > 1000 | Cc1cccc(CCCOc2ccc3c(c2)CC2(C3)CN(CC3(C(=O)O)CC3)C2)n1 [Example 146, 1-((5′-(3-(6-methylpyridin-2-yl)propoxy)-1′,3′-dihydrospiro[azetidine-3,2′-inden]-1-yl)methyl)cyclopropanecarboxylic acid]
21 | 100 to 1000 | > 1000 | < 1000 | N#Cc1cccc(COc2ccc3c(c2)CC2(C3)CN(CC3(C(=O)O)CC3)C2)c1 [Example 147, 1-((5′-((3-cyanobenzyl)oxy)-1′,3′-dihydrospiro[azetidine-3,2′-inden]-1-yl)methyl)cyclopropanecarboxylic acid]
22 | 1000 to 10000 | > 1000 | < 1000 | O=C(O)C1(CN2CC3(Cc4ccc(OCCc5cccc(F)c5)cc4C3)C2)CC1 [Example 148, 1-((5′-(3-fluorophenethoxy)-1′,3′-dihydrospiro[azetidine-3,2′-inden]-1-yl)methyl)cyclopropanecarboxylic acid]
23 | 1000 to 10000 | > 1000 | > 1000 | O=C(O)CN1CC2(Cc3ccc(C#Cc4ccc(Cl)cc4)cc3O2)C1 [Example 149, 2-(6′-((4-chlorophenyl)ethynyl)-3′H-spiro[azetidine-3,2′-benzofuran]-1-yl)acetic acid]
24 | ≤ 10 | > 1000 | < 1000 | O=C(O)CN1CC2(Cc3ccc(C#CC4CCCCC4)cc3O2)C1 [Example 150, 2-(6′-(cyclohexylethynyl)-3′H-spiro[azetidine-3,2′-benzofuran]-1-yl)acetic acid]
25 | ≤ 10 | > 1000 | < 1000 | O=C(O)CN1CC2(Cc3ccc(C#Cc4ccccc4)cc3O2)C1 [Example 151, 2-(6′-(phenylethynyl)-3′H-spiro[azetidine-3,2′-benzofuran]-1-yl)acetic acid]
26 | ≤ 10 | > 1000 | < 1000 | O=C(O)CN1CC2(Cc3ccc(C#Cc4cccc(Cl)c4)cc3O2)C1 [Example 152, 2-(6′-((3-chlorophenyl)ethynyl)-3′H-spiro[azetidine-3,2′-benzofuran]-1-yl)acetic acid]
